The source of these data is ChEMBL document CHEMBL4052745 (Bioorg Med Chem, 2017).

Converted amounts (≈) assume the structure as drawn.

One data set deals with Bacillus anthracis. The data set can be described thus: Bactericidal activity against Bacillus anthracis. It counts as functional.
Conditions: not given
Broadly, the EC50 is the concentration giving half of the maximal effect. A high value points to a need for much substance. `CC(C)NC(=O)N[C@H](CNC(=O)N[C@@H](CCCCN)CNC(=O)N[C@H](CNC(=O)N[C@H](CCNC(=O)N[C@@H](CCCCN)CNC(=O)N[C@H](CNC(=O)N[C@@H](CCCCN)CNC(=O)N[C@H](CCC(N)=O)C(C)C)Cc1c[nH]c2ccccc12)C(C)C)Cc1c[nH]c2ccccc12)C(C)C` gave a half-maximal effective concentration (EC50) of 7 to 10 µg/mL (≈ 4.99 to 7.13 µM).

Test system in the next data set: not listed separately
Put plainly: Cytotoxicity against mouse RAW264.7 cells after 4 hrs by MTT assay. The format is cell-based. The conditions noted are these: read-out: TD50. In general terms: Tetrazolium assays rely on reduction of a dye to a coloured formazan, in cell work by metabolically active cells.
For `CC(C)NC(=O)N[C@H](CNC(=O)N[C@@H](CCCCN)CNC(=O)N[C@H](CNC(=O)N[C@H](CNC(=O)N[C@@H](CCCCN)CNC(=O)N[C@H](CNC(=O)N[C@@H](CCCCN)CNC(=O)N[C@H](CNC(N)=S)C(C)C)Cc1c[nH]c2ccccc12)C(C)C)Cc1c[nH]c2ccccc12)C(C)C`, the CC50 at 4 h amounted to 21 µg/mL (≈ 14.9 µM). The same measure, in the same setting: as for `CC(C)NC(=O)N[C@H](CNC(=S)N[C@@H](CCCCN)CNC(=O)N[C@H](CNC(=O)N[C@H](CNC(=O)N[C@@H](CCCCN)CNC(=O)N[C@H](CNC(=O)N[C@@H](CCCCN)CNC(=O)N[C@H](CNC(N)=O)C(C)C)Cc1c[nH]c2ccccc12)C(C)C)Cc1c[nH]c2ccccc12)C(C)C`, the figure is 26 µg/mL (≈ 18.5 µM).

As to `CC(C)NC(=O)N[C@H](CNC(=O)N[C@@H](CCCCN)CNC(=O)N[C@H](CNC(=O)N[C@H](CNC(=O)N[C@@H](CCCCN)CNC(=O)N[C@H](CNC(=O)N[C@@H](CCCCN)CNC(=S)N[C@H](CCC(N)=O)C(C)C)Cc1c[nH]c2ccccc12)C(C)C)Cc1c[nH]c2ccccc12)C(C)C`, the CC50 at 4 h is 20.5 µg/mL (≈ 14.6 µM). On the same count and under the same terms, the figure for `CC(C)NC(=O)N[C@H](CNC(=O)N[C@@H](CCCCN)CNC(=O)N[C@H](CNC(=O)N[C@H](CNC(=S)N[C@@H](CCCCN)CNC(=O)N[C@H](CNC(=O)N[C@@H](CCCCN)CNC(=O)N[C@H](CNC(N)=O)C(C)C)Cc1c[nH]c2ccccc12)C(C)C)Cc1c[nH]c2ccccc12)C(C)C` is 28 µg/mL (≈ 19.9 µM); for `CC(C)NC(=O)N[C@H](CNC(=O)N[C@@H](CCCCN)CNC(=O)N[C@H](CNC(=O)N[C@H](CNC(=O)N[C@@H](CCCCN)CNC(=O)N[C@H](CNC(=O)N[C@@H](CCCCN)CNC(=N)N[C@H](CCC(N)=O)C(C)C)Cc1c[nH]c2ccccc12)C(C)C)Cc1c[nH]c2ccccc12)C(C)C` it is 15 µg/mL (≈ 10.8 µM).
